These results are taken from ChEMBL document CHEMBL4184315, “Discovery of Inhibitor of Wnt Production 2 (IWP-2) and Related Compounds As Selective ATP-Competitive Inhibitors of Casein Kinase 1 (CK1) δ/ε” (J Med Chem, 2018).

For data set [1], the target named is T1, Casein kinase I isoform delta (Homo sapiens, UniProt P48730). Briefly: Inhibition of CK1delta in HEK293T cells assessed as stimulation of Wnt/beta-catenin signaling at 5 uM after 22 hrs in presence of Wnt3A-conditioned medium by Super-top flash reporter gene assay relative to control. The data set is classed as cell-based.
Target sequence in this assay (P48730 whole entry, looked up, the tested form may be a part, canonical isoform): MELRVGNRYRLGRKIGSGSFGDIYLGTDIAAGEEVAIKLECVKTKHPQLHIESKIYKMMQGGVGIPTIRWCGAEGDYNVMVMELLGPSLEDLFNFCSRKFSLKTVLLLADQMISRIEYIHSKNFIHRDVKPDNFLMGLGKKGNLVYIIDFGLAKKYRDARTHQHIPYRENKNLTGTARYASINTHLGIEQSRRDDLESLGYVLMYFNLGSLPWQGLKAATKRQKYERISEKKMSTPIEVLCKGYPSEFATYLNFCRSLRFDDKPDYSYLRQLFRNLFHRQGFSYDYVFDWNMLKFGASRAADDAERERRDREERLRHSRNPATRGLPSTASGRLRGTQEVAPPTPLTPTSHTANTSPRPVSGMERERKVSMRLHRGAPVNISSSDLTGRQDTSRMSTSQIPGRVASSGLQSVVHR
Data set [2] has as its target T2, Casein kinase I isoform delta (Rattus norvegicus, UniProt Q06486). Briefly: Inhibition of rat recombinant CK1delta kinase domain using alpha-casein as substrate after 30 mins in presence of [gamma-32P]-ATP by Cherenkov counting method.
The target in data set [3] is T2, Casein kinase I isoform delta. The experiment in a line: Inhibition of full-length rat GST-tagged CK1delta using alpha-casein as substrate after 30 mins in presence of [gamma-32P]-ATP by Cherenkov counting method.
Data set [4] deals with Casein kinase I isoform delta (Rattus norvegicus, UniProt Q06486, M82F). The experiment in a line: Inhibition of rat GST-tagged CK1delta M82F mutant at 10 uM using alpha-casein as substrate after 30 mins in presence of [gamma-32P]-ATP by Cherenkov counting method.
Chain of Casein kinase I isoform delta (Rattus norvegicus, UniProt Q06486, M82F) (Q06486 whole entry M82F, canonical isoform): as the sequence (P48730 whole entry, looked up, the tested form may be a part, canonical isoform) above, with M82F, I381V counted along it
For data set [5], the target named is Casein kinase I isoform epsilon (Homo sapiens, UniProt P49674). The experiment in a line: Inhibition of human recombinant CK1epsilon using alpha-casein as substrate after 30 mins in presence of [gamma-32P]-ATP by Cherenkov counting method.
Chain of Casein kinase I isoform epsilon (P49674 whole entry, canonical isoform): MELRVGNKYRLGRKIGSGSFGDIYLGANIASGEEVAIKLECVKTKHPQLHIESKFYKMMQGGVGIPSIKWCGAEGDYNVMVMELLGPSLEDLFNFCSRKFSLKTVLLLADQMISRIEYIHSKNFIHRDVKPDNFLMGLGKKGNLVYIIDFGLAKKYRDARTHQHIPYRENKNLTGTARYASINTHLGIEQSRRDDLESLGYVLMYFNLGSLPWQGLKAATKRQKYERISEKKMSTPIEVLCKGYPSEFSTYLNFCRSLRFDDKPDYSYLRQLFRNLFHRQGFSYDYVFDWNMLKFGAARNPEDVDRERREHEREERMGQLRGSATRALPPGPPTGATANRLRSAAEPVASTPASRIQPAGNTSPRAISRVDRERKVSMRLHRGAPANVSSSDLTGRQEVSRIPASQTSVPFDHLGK
The target of data set [6] is T3, Casein kinase I isoform alpha (Bos taurus) (UniProt P67827).
T3 sequence (whole entry): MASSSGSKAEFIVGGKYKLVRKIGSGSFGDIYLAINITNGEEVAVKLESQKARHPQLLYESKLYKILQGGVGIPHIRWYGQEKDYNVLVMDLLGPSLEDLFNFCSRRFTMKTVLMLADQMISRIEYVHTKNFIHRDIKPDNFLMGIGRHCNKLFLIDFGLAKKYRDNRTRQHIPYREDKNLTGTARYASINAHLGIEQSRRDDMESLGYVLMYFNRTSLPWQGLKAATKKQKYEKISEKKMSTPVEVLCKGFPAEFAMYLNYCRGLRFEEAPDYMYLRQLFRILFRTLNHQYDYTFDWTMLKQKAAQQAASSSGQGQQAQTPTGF
The experiment in a line: Inhibition of bovine GST-tagged CK1alpha at 1 uM using alpha-casein as substrate after 30 mins in presence of [gamma-32P]-ATP by Cherenkov counting method.

The target of data set [7] is Casein kinase I isoform gamma-3 (Homo sapiens) (UniProt Q9Y6M4). Briefly: Inhibition of human GST-tagged CK1gamma3 at 1 uM using alpha-casein as substrate after 30 mins in presence of [gamma-32P]-ATP by Cherenkov counting method.
Chain of Casein kinase I isoform gamma-3 (Homo sapiens) (Q9Y6M4 whole entry, looked up, canonical isoform): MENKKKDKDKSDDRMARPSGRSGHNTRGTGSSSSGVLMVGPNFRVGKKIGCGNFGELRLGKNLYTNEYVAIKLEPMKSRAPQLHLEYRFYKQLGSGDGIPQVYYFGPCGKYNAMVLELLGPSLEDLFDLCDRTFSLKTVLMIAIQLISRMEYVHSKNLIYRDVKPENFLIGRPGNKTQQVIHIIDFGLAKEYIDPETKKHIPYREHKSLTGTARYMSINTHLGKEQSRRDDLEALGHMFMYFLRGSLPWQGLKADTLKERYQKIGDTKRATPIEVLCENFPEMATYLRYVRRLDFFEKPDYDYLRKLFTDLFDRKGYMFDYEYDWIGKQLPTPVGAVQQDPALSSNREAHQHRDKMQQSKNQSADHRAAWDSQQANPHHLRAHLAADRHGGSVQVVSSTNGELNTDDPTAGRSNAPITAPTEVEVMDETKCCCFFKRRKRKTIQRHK
Data set [8] concerns the target T1, Casein kinase I isoform delta. The experiment in a line: Inhibition of human recombinant CK1delta at 1 uM after 60 mins in presence of [gamma-33P]-ATP by scintillation counting method.
Target sequence in this assay (P48730 whole entry, looked up, the tested form may be a part, canonical isoform): as the sequence (P48730 whole entry, looked up, the tested form may be a part, canonical isoform) above
Data set [9] addresses T4, Protein-serine O-palmitoleoyltransferase porcupine (Homo sapiens, UniProt Q9H237).
T4 sequence (Q9H237 whole entry): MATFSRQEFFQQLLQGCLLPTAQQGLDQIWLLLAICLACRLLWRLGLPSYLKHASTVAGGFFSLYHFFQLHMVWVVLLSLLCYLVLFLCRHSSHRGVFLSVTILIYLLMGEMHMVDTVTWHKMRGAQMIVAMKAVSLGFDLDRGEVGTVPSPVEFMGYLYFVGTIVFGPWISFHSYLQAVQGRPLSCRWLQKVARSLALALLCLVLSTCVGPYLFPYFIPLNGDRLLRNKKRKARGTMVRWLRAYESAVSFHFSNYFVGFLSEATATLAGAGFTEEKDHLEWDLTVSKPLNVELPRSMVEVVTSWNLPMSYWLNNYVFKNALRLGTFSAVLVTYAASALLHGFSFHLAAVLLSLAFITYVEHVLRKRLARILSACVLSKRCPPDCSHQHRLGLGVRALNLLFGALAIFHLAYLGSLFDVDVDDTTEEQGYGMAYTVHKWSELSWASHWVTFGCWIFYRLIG
The experiment in a line: Inhibition of porcupine in HEK293T cells transfected with Wnt3A-expressing vector assessed as suppression of Wnt/beta-catenin signaling after 22 hrs by Super-top flash reporter gene assay. The data set is classed as cell-based.

The target in data set [10] is T5, Protein-serine O-palmitoleoyltransferase porcupine (Homo sapiens) (UniProt Q9H237).
T5 sequence (whole entry): T4 sequence (Q9H237 whole entry)
The experiment in a line: Inhibition of porcupine in HEK293T cells transfected with Wnt3A-expressing vector assessed as suppression of Wnt/beta-catenin signaling at 5 uM after 22 hrs by Super-top flash reporter gene assay relative to control. The data set is classed as cell-based.

Data set [11] concerns the target T1, Casein kinase I isoform delta. The experiment in a line: Inhibition of CK1delta in HEK293T cells assessed as stimulation of Wnt/beta-catenin signaling after 22 hrs in presence of Wnt3A-conditioned medium by Super-top flash reporter gene assay. The data set is classed as cell-based.
Target sequence in this assay (P48730 whole entry, the tested form may be a part, canonical isoform): as the sequence (P48730 whole entry, looked up, the tested form may be a part, canonical isoform) above
Data set [12] relates to HEK-293T. The experiment in a line: Upregulation of renilla luciferase expression in HEK293T cells transfected with Wnt3A-expressing vector up to 5 uM after 22 hrs by luminescence assay relative to control. The note with it: human. The data set is classed as cell-based.
In data set [13] the test system is HEK-293T. Briefly: Upregulation of renilla luciferase expression in HEK293T cells up to 5 uM after 22 hrs in presence of Wnt3A-conditioned medium by luminescence assay relative to control. The note with it: human. The data set is classed as cell-based.
In data set [14] the test system is HEK-293T. The experiment in a line: Toxicity in HEK293T cells at 0.5 to 5 uM after 6 to 22 hrs by CellTiter-Glo assay. The data set is classed as cell-based. As to conditions: human.
Data set [15] deals with Casein kinase I isoform delta (Rattus norvegicus) (UniProt Q06486). Briefly: Inhibition of full-length rat GST-tagged CK1delta assessed as residual activity at 10 uM using alpha-casein as substrate after 30 mins in presence of [gamma-32P]-ATP by Cherenkov counting method.
Chain of Casein kinase I isoform delta (Rattus norvegicus) (Q06486 whole entry, looked up, the tested form may be a part, canonical isoform): as the sequence (P48730 whole entry, looked up, the tested form may be a part, canonical isoform) above, with I381V counted along it
For data set [16] the target is unchanged. Briefly: Inhibition of rat recombinant CK1delta kinase domain assessed as residual activity at 10 uM using alpha-casein as substrate after 30 mins in presence of [gamma-32P]-ATP by Cherenkov counting method.
Data set [17] is described as follows: Selectivity ratio of IC50 for human CK1epsilon to IC50 for full-length rat GST-tagged CK1delta.
Data set [18] in a line: Selectivity ratio of IC50 for human CK1epsilon to IC50 for rat recombinant CK1delta kinase domain.
Data set [19] deals with Casein kinase I isoform delta (Rattus norvegicus) (UniProt Q06486). The experiment in a line: Ratio of IC50 for full-length rat GST-tagged CK1delta to IC50 for rat recombinant CK1delta kinase domain.
The target is the same in data set [20]. The experiment in a line: Competitive inhibition of full-length rat GST-tagged CK1delta at IC50 using alpha-casein as substrate after 30 mins in presence of 10 to 500 uM ATP and [gamma-32P]-ATP by Cherenkov counting method.
In data set [21] the target is T1, Casein kinase I isoform delta. Briefly: Inhibition of human recombinant CK1delta assessed as residual activity at 1 uM after 60 mins in presence of [gamma-33P]-ATP by scintillation counting method.
Target sequence in this assay (P48730 whole entry, looked up, the tested form may be a part, canonical isoform): as the sequence (P48730 whole entry, looked up, the tested form may be a part, canonical isoform) above
Data set [22] concerns the target Tyrosine-protein kinase ZAP-70 (Homo sapiens) (UniProt P43403). Briefly: Inhibition of recombinant human full length GST/His-tagged ZAP70 expressed in Sf9 cells assessed as residual activity at 1 uM after 60 mins in presence of [gamma-33P]-ATP by scintillation counting method.
Data set [23] has as its target Serine/threonine-protein kinase tousled-like 2 (Homo sapiens) (UniProt Q86UE8). The experiment in a line: Inhibition of recombinant human N-terminal FLAG/C-terminal HIS8-tagged TLK2 assessed as residual activity at 1 uM after 60 mins in presence of [gamma-33P]-ATP by scintillation counting method.
Data set [24] concerns the target Tyrosine-protein kinase ZAP-70 (Homo sapiens) (UniProt P43403). The experiment in a line: Inhibition of recombinant human ZAP70 at 5 nM to 10 uM using poly (L-glutamic acid-L-tyrosine) as substrate after 30 mins in presence of [gamma-32P]-ATP by Cherenkov counting method.
The target in data set [25] is Serine/threonine-protein kinase tousled-like 2 (Homo sapiens) (UniProt Q86UE8). The experiment in a line: Inhibition of recombinant human TLK2 at 5 nM to 10 uM using alpha-casein as substrate after 30 mins in presence of [gamma-32P]-ATP by Cherenkov counting method.
Chain of Serine/threonine-protein kinase tousled-like 2 (Homo sapiens) (Q86UE8 whole entry, looked up): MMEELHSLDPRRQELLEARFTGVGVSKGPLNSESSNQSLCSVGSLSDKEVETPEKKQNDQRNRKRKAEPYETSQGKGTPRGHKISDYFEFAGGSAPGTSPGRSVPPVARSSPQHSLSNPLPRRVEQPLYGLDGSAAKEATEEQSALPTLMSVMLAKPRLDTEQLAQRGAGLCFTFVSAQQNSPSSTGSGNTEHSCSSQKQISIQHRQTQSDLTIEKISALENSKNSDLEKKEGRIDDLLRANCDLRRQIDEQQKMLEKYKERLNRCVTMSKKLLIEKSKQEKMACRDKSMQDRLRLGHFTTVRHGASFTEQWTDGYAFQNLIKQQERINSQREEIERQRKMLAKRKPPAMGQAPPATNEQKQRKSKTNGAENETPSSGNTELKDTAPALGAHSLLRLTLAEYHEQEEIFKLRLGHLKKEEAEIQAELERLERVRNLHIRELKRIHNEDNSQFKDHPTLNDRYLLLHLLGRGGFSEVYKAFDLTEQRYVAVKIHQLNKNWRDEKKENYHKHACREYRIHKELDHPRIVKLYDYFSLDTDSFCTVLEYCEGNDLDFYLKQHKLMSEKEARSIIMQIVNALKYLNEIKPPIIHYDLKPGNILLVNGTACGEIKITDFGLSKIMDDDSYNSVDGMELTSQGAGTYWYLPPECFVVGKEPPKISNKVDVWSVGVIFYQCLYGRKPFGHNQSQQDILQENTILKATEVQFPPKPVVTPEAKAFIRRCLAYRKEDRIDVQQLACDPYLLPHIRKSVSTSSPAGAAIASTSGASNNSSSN
A short description of data set [26]: Antiproliferative activity against human A818-6 cells after 48 hrs by MTT assay. The data set is classed as functional, cell-based.
The subject of data set [27] is MIA PaCa-2. The experiment in a line: Antiproliferative activity against human MIAPaCa2 cells after 48 hrs by MTT assay. The data set is classed as functional, cell-based. The note with it: MIA PaCa-2, 48 h.
The test system of data set [28] is PANC-1. Briefly: Antiproliferative activity against human PANC1 cells after 48 hrs by MTT assay. The data set is classed as functional, cell-based. The note with it: PANC-1, 48 h.
Data set [29] can be described thus: Antiproliferative activity against human Panc89 cells after 48 hrs by MTT assay. The data set is classed as functional, cell-based.
Data set [30] deals with HT-29. The experiment in a line: Antiproliferative activity against human HT-29 cells after 48 hrs by MTT assay. The data set is classed as functional, cell-based. The note with it: HT-29, 48 h.
The test system of data set [31] is HEK293. Briefly: Antiproliferative activity against human HEK293 cells after 48 hrs by MTT assay. The data set is classed as functional, cell-based. As to conditions: HEK293, 48 h.
Data set [32] has as its system SW-620. The experiment in a line: Antiproliferative activity against human SW620 cells after 48 hrs by MTT assay. The data set is classed as functional, cell-based. As to conditions: SW-620, 48 h.
Data set [33] concerns CAPAN-1. The experiment in a line: Antiproliferative activity against human Capan1 cells after 48 hrs by MTT assay. The data set is classed as functional, cell-based. The note with it: CAPAN-1, 48 h.
The target in data set [34] is T1, Casein kinase I isoform delta. The experiment in a line: Inhibition of CK1delta in human PANC1 cells assessed as residual activity at 2.33 uM using GST-tagged p53 (1 to 64 residues) as substrate after 48 hrs in presence of [gamma-32P]-ATP by Cherenkov counting method. The data set is classed as cell-based.
Target sequence in this assay (P48730 whole entry, looked up, the tested form may be a part, canonical isoform): as the sequence (P48730 whole entry, looked up, the tested form may be a part, canonical isoform) above
For data set [35], the species on record is Homo sapiens. Briefly: Inhibition of Wnt/beta-catenin signaling in HEK293T cells after 22 hrs in presence of Wnt3A-conditioned medium by Super-top flash reporter gene assay. The data set is classed as cell-based.

The structures appear in SMILES notation. The source made the active and inactive calls. The calls are words filed in the database; no cut-off is given here. A value given as a limit tells only on which side of the number the result lay.

T2 sequence (Q06486 whole entry, the tested form may be a part, canonical isoform): as the sequence (P48730 whole entry, looked up, the tested form may be a part, canonical isoform) above, with I381V counted along it
Chain of Tyrosine-protein kinase ZAP-70 (Homo sapiens) (P43403 whole entry): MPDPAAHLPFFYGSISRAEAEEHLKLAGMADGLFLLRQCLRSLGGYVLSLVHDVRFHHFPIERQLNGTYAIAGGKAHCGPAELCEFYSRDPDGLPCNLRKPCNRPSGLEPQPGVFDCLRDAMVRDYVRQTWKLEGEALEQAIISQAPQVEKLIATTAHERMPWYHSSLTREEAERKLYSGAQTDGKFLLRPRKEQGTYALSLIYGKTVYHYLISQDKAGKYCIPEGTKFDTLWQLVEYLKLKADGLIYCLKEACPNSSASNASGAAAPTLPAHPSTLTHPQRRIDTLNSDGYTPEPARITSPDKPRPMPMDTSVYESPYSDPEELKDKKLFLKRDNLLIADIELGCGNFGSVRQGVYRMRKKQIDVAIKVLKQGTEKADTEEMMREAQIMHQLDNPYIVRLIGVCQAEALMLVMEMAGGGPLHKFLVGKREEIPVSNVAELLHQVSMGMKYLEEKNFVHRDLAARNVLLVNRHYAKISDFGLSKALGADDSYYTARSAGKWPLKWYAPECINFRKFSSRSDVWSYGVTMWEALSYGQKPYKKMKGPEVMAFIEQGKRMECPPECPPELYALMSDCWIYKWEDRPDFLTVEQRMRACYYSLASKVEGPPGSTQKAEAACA

With `COc1ccc(Cn2c(SCC(=O)Nc3nc4ccc(C(F)(F)F)cc4s3)nc3c(c2=O)SCC3)cc1`, the Emax in [1] is 225%. The IC50 in [2] amounted to 90 nM; in data set [3], 410 nM; in data set [4] it was 90 nM; in data set [5], 560 nM; in data set [9] it was 710 nM. Also, the inhibition entry in [6], in data set [7] and in data set [8] was “Active” in each case. The Imax in [10] was 38.8%. Also, in [11], the EC50 was 1470 nM. Moreover, the “fold change (FC)” value in data set [12] was “<= 1.3”; in [13] it was “<= 1.5”.

With `Fc1cccc(-n2cnc3c(NCc4nc5ccc(F)c(F)c5[nH]4)nc(N4CCOCC4)nc32)c1`, in data set [14], the Activity entry is on record as “Toxic”.

Take `Cc1ccc2nc(NC(=O)CSc3nc4c(c(=O)n3-c3ccccc3)SCC4)sc2c1`: the Activity was 23% in data set [15]; 19% in [16]; 55% in data set [21]; 54% in data set [22]; 59% in data set [23]; 66% in [34]. In addition, the IC50 in data set [2] came to 320 nM; in data set [3] it was 930 nM; in data set [4] it was 40 nM; in data set [5], 4030 nM; in [9], 157 nM. Moreover, the figures for the Ratio IC50 in data set [17], in data set [18] and in [19] were 4 to 7, under 17 and 4, respectively. In data set [20], the inhibition result was “Active”. The inhibition result in data set [24], in [25] and in data set [35] was “inactive” each time. In addition, the EC50 in data set [26] was determined as 8960 nM; in data set [27] it was 1900 nM; in data set [28], 2330 nM; in [29] it was 3860 nM; in data set [30], 4670 nM; in data set [31], 2760 nM. Moreover, the values for the EC50 in data set [32] and in data set [33] were 1900 nM and 2050 nM, respectively. For the same compound, the Imax in data set [10] is 5.5%. In addition, the “fold change (FC)” value in data set [12] is given as “<= 1.3”; in [13], “<= 1.5”.
